# Data reported in patent US12054486B2, “Pyridine derivatives and their use as sodium channel activators” (Xenon Pharmaceuticals Inc., priority 2021, dated 2024).
# Target: sodium channel isoforms of interest stably expressed in Human Embryonic Kidney Cells (voltage-gated sodium channel, particularly NaV1.1) (Homo sapiens, UniProt P35498)
# Test: automated planar patch clamp assay of sodium channel gating (area under the sodium current trace)
# Assay type: cell-based
# Conditions: HEK cells, voltage step from −120 mV to 0 mV, increasing concentrations
# Description: A typical assay described in Crestey, F. et al., ACS Chem Neurosci (2015), Vol. 6, pp. 1302-1308, AA43279 (Frederiksen, K. et al., Eur J Neurosci (2017), Vol. 46, pp. 1887-1896) and Lu AE98134 (von Schoubyea, N. L. et al., Neurosci Lett (2018), Vol. 662, pp. 29-35) employs the use of automated planar patch clamp techniques to study the effects of the chemical agent on the gating of sodium channels. The sodium channel isoforms of interest are stably expressed in Human Embryonic Kidney Cells and the currents that flow through those channels in response to a depolarizing voltage clamp step from −120 mV to 0 mV are measured in the presence of increasing concentrations of the chemical agents. The area under the sodium current trace which correlates to the magnitude of sodium flux through the cell membrane is used to quantify the effects on gating of the channels. Other parameters that are measured in the assay include the peak current, time constant of open state inactivation and the voltage dependence of steady state inactivation properties. The concentration responses are used to determine potency of each chemical agents effects on modulating the sodium channel isoform gating. Such techniques are known to those skilled in the art, and may be developed, using current technologies, into low or medium throughput assays for evaluating compounds for their ability to modulate sodium channel behaviour.
# As disclosed above, typical assays for testing compounds of the disclosure are known, for example as disclosed in Crestey, F. et al., ACS Chem Neurosci (2015), Vol. 6, pp. 1302-1308, AA43279 (Frederiksen, K. et al., Eur J Neurosci (2017), Vol. 46, pp. 1887-1896) and Lu AE98134 (von Schoubyea, N. L. et al., Neurosci Lett (2018), Vol. 662, pp. 29-35) which employs the use of automated planar patch clamp techniques to study the effects of the chemical agent on the gating of sodium channels. The sodium channel isoforms of interest are stably expressed in Human Embryonic Kidney Cells and the currents that flow through those channels in response to a depolarizing voltage clamp step from −120 mV to 0 mV are measured in the presence of increasing concentrations of the chemical agents. The area under the sodium current trace which correlates to the magnitude of sodium flux through the cell membrane is used to quantify the effects on gating of the channels. Other parameters that are measured in the assay include the peak current, time constant of open state inactivation and the voltage dependence of steady state inactivation properties. The concentration responses are used to determine potency of each chemical agents effects on modulating the sodium channel isoform gating.
Compound,EC50 [nM],Empirical Emax
"FC(F)(F)C1(CNc2nccc(-c3ccccc3)c2-c2nc3c([nH]2)COCC3)CCC1 [Example 51, 4-phenyl-3-(3,4,6,7-tetrahydropyrano[3,4-d]imidazol-2-yl)-N-((1-(trifluoromethyl)cyclobutyl)methyl)pyridin-2-amine]",< 1000,+ (+ indicates a value less than 2.0 μM)
"CC1(C)Cc2nc(-c3c(-c4ccccc4)ccnc3N3CCC(F)(F)C3)[nH]c2CO1 [Example 52, 2-(2-(3,3-difluoropyrrolidin-1-yl)-4-phenylpyridin-3-yl)-6,6-dimethyl-3,4,6,7-tetrahydropyrano[3,4-d]imidazole]",< 1000,+++ (+++ indicates a value from 5.0 up to 7.5 μM)
"FC1(F)CCN(c2nccc(-c3ccccc3)c2-c2nc3c([nH]2)COC2(CCC2)C3)C1 [Example 53, 2′-(2-(3,3-difluoropyrrolidin-1-yl)-4-phenylpyridin-3-yl)-4′,7′-dihydro-3′H-spiro[cyclobutane-1,6′-pyrano[3,4-d]imidazole]]",1000 to 10000,++ (++ indicates a value from 2.0 up to 5.0 μM)
"CC1(C)OCCc2nc(-c3c(-c4ccccc4)ccnc3N3CCC(F)(F)C3)[nH]c21 [Example 54, 2-(2-(3,3-difluoropyrrolidin-1-yl)-4-phenylpyridin-3-yl)-4,4-dimethyl-3,4,6,7-tetrahydropyrano[3,4-d]imidazole]",1000 to 10000,+++ (+++ indicates a value from 5.0 up to 7.5 μM)
"CC(C)(C)OC(=O)N1CCc2nc(-c3c(-c4ccccc4)ccnc3N3CCC(F)(F)C3)[nH]c2C1 [Example 55, Tert-Butyl 2-[2-(3,3-difluoropyrrolidin-1-yl)-4-phenyl-3-pyridyl]-3,4,6,7-tetrahydroimidazo[4,5-c]pyridine-5-carboxylate]",< 1000,+++ (+++ indicates a value from 5.0 up to 7.5 μM)
"Fc1ccc(F)c(-c2ccnc(N3CC[C@H](F)C3)c2-c2nc3c([nH]2)COCC3)c1 [Example 56, (S)-2-(4-(2,5-difluorophenyl)-2-(3-fluoropyrrolidin-1-yl)pyridin-3-yl)-3,4,6,7-tetrahydropyrano[3,4-d]imidazole]",1000 to 10000,++++ (++++ indicates a value greater than 7.5)
"CC1(C)Cc2nc(-c3c(-c4cc(F)ccc4F)ccnc3N3CCC(F)(F)C3)[nH]c2CO1 [Example 57, 2-(4-(2,5-difluorophenyl)-2-(3,3-difluoropyrrolidin-1-yl)pyridin-3-yl)-6,6-dimethyl-3,4,6,7-tetrahydropyrano[3,4-d]imidazole]",< 1000,++++ (++++ indicates a value greater than 7.5)
"COC1CCc2nc(-c3c(-c4ccccc4)ccnc3N3CC[C@H](F)C3)[nH]c2C1 (stereo partly drawn) [Example 58, 2-(2-((S)-3-fluoropyrrolidin-1-yl)-4-phenylpyridin-3-yl)-6-methoxy-4,5,6,7-tetrahydro-1H-benzo[d]imidazole]",1000 to 10000,++ (++ indicates a value from 2.0 up to 5.0 μM)
"COC1CCc2nc(-c3c(-c4ccccc4)ccnc3N3CCC(F)(F)C3)[nH]c2C1 (stereo not drawn) [Example 59, 2-(2-(3,3-difluoropyrrolidin-1-yl)-4-phenylpyridin-3-yl)-6-methoxy-4,5,6,7-tetrahydro-1H-benzo[d]imidazole]",< 1000,++ (++ indicates a value from 2.0 up to 5.0 μM)
"FC1(F)CCN(c2nccc(-c3ccccc3)c2-c2nc3c([nH]2)CCCC3)C1 [Example 60, 2-(2-(3,3-difluoropyrrolidin-1-yl)-4-phenylpyridin-3-yl)-4,5,6,7-tetrahydro-1H-benzo[d]imidazole]",< 1000,++ (++ indicates a value from 2.0 up to 5.0 μM)
"Cc1[nH]c(-c2c(-c3ccccc3)ccnc2N2CCC(F)(F)C2)nc1-c1ccccc1 [Example 61, 2-(3,3-difluoropyrrolidin-1-yl)-3-(5-methyl-4-phenyl-1H-imidazol-2-yl)-4-phenylpyridine]",1000 to 10000,++ (++ indicates a value from 2.0 up to 5.0 μM)
"CC(C)(C)c1nc(-c2c(-c3ccccc3)ccnc2N2CCC(F)(F)C2)no1 [Example 62, 5-(tert-butyl)-3-(2-(3,3-difluoropyrrolidin-1-yl)-4-phenylpyridin-3-yl)-1,2,4-oxadiazole]",1000 to 10000,+ (+ indicates a value less than 2.0 μM)
"OC1Cc2nc(-c3c(-c4ccccc4)ccnc3N3CCC(F)(F)C3)[nH]c2C1 [Example 63, 2-(2-(3,3-difluoropyrrolidin-1-yl)-4-phenylpyridin-3-yl)-1,4,5,6-tetrahydrocyclopenta[d]imidazol-5-ol]",1000 to 10000,++ (++ indicates a value from 2.0 up to 5.0 μM)
"c1ccc(-c2ccnc(N3CCOCC3)c2-c2nc3c([nH]2)COCC3)cc1 [Example 64, 2-(2-morpholino-4-phenylpyridin-3-yl)-3,4,6,7-tetrahydropyrano[3,4-d]imidazole]",10000 to 50000,+ (+ indicates a value less than 2.0 μM)
"FC1(F)CN(c2nccc(-c3ccccc3)c2-c2nc3c([nH]2)COCC3)C1 [Example 65, 2-(2-(3,3-difluoroazetidin-1-yl)-4-phenylpyridin-3-yl)-3,4,6,7-tetrahydropyrano[3,4-d]imidazole]",≥ 50000,++ (++ indicates a value from 2.0 up to 5.0 μM)
"c1ccc(-c2ccnc(N3CC4(COC4)C3)c2-c2nc3c([nH]2)COCC3)cc1 [Example 66, 2-(4-phenyl-2-(2-oxa-6-azaspiro[3.3]heptan-6-yl)pyridin-3-yl)-3,4,6,7-tetrahydropyrano[3,4-d]imidazole]",1000 to 10000,+++ (+++ indicates a value from 5.0 up to 7.5 μM)
"c1ccc(-c2ccnc(OC3CCC3)c2-c2nc3c([nH]2)COCC3)cc1 [Example 67, 2-(2-cyclobutoxy-4-phenylpyridin-3-yl)-3,4,6,7-tetrahydropyrano[3,4-d]imidazole]",≥ 50000,+ (+ indicates a value less than 2.0 μM)
"F[C@H]1CCN(c2nccc(-c3ccccc3)c2-c2nc3ccccc3o2)C1 [Example 68, (S)-2-(2-(3-fluoropyrrolidin-1-yl)-4-phenylpyridin-3-yl)benzo[d]oxazole]",≥ 50000,+ (+ indicates a value less than 2.0 μM)
"F[C@H]1CCN(c2nccc(-c3ccccc3)c2-c2nc(-c3ccccc3)n[nH]2)C1 [Example 69, (S)-2-(3-fluoropyrrolidin-1-yl)-4-phenyl-3-(3-phenyl-1H-1,2,4-triazol-5-yl)pyridine]",1000 to 10000,++ (++ indicates a value from 2.0 up to 5.0 μM)
"Fc1ccccc1-c1ccnc(N2CCC(F)(F)C2)c1-c1nc2c([nH]1)COCC2 [Example 72, 2-[2-(3,3-difluoropyrrolidin-1-yl)-4-(2-fluorophenyl)-3-pyridyl]-1,4,6,7-tetrahydropyrano[3,4-d]imidazole]",< 1000,++++ (++++ indicates a value greater than 7.5)
"Fc1ccc(F)c(-c2ccnc(N3CCC(F)(F)C3)c2-c2nc3c([nH]2)CCOC3)c1 [Example 73, 2-[4-(2,5-difluorophenyl)-2-(3,3-difluoropyrrolidin-1-yl)-3-pyridyl]-1,4,6,7-tetrahydropyrano[3,4-d]imidazole]",< 1000,+++ (+++ indicates a value from 5.0 up to 7.5 μM)
"FC1(F)CCN(c2nccc(-c3ccc4[nH]ncc4c3)c2-c2nc3c([nH]2)CCOC3)C1 [Example 74, 2-[2-(3,3-difluoropyrrolidin-1-yl)-4-(1H-indazol-5-yl)-3-pyridyl]-1,4,6,7-tetrahydropyrano[3,4-d]imidazole]",1000 to 10000,++++ (++++ indicates a value greater than 7.5)
"Fc1cccc(-c2ccnc(N3CCC(F)(F)C3)c2-c2nc3c([nH]2)CCOC3)c1 [Example 75, 2-[2-(3,3-difluoropyrrolidin-1-yl)-4-(3-fluorophenyl)-3-pyridyl]-1,4,6,7-tetrahydropyrano[3,4-d]imidazole]",< 1000,++++ (++++ indicates a value greater than 7.5)
"FC1(F)CCN(c2nccc(-c3ccccn3)c2-c2nc3c([nH]2)CCOC3)C1 [Example 76, 2-[2-(3,3-difluoropyrrolidin-1-yl)-4-(2-pyridyl)-3-pyridyl]-1,4,6,7-tetrahydropyrano[3,4-d]imidazole]",10000 to 50000,+++ (+++ indicates a value from 5.0 up to 7.5 μM)
